Reference: ChEMBL document CHEMBL1201862, “PubChem BioAssay data set” (2004)
Activity calls are given as the source filed them.

Assays:
[1] = target: T1, Fatty acid synthase (Homo sapiens, UniProt P49327); experiment: FAS thioesterase domain inhibitors, dose response, biochemical, endpoint fluorescence intensity, uHTS hits (AID 624327); format: functional;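 also: fluorescence from hydrolysis of an O-methyl fluorescein acyl ester substrate by the enzyme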
[2] = target: T1, Fatty acid synthase; experiment: FAS thioesterase domain inhibitors, dose response, biochemical, kinetic fluorescence intensity (AID 624326); format: functional;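 also: rate of fluorescence rise from hydrolysis of a fluorogenic O-methyl fluorescein ester substrate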
[3] = target: Heat shock protein HSP 90-alpha (Homo sapiens, UniProt P07900); format: functional, organism-based
[4] = target: Beta-galactosidase (Escherichia coli, UniProt Q8VNN2); experiment: beta-galactosidase enzyme inhibitors and activators, dose response, artefact control for CCR6 antagonist project, biochemical, E. coli enzyme, set 3 (AID 504712); format: functional
Beta-galactosidase, sequence (Q8VNN2 whole entry): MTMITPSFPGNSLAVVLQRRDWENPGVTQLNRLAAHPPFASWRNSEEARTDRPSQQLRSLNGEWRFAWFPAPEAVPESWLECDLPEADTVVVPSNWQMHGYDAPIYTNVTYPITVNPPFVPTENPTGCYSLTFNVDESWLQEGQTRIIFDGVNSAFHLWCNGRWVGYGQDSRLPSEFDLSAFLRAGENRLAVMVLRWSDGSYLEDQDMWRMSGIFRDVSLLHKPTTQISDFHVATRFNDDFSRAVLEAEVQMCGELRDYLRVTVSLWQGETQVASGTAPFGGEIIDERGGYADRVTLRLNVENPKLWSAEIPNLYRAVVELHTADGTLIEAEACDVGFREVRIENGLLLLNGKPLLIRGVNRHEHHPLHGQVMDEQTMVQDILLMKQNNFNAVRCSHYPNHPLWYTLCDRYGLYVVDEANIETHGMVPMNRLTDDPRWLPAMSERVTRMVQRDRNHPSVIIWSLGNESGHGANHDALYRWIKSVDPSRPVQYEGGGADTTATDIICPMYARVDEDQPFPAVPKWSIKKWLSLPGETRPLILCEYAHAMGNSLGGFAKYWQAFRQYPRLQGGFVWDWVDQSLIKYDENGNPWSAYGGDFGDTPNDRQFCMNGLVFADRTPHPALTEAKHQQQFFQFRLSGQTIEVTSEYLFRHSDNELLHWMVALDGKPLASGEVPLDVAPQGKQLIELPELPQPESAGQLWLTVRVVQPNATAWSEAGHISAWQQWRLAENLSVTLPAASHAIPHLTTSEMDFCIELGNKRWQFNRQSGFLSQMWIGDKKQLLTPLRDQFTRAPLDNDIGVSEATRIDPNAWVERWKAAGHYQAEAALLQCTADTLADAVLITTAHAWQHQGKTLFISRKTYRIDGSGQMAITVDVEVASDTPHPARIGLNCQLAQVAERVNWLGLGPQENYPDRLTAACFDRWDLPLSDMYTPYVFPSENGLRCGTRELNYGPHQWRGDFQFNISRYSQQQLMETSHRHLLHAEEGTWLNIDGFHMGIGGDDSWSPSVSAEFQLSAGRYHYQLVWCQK

[5] = cytotoxicity in HEK-293T cells, dose response, cytotoxicity control for BCR NF-kB inhibitor project, luminescence, B-cell screen hits (AID 489021); format: functional, cell-based;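 also: HEK-293T cells carrying an NF-kB luciferase reporter; cells exposed to compound for about 14 hours before viability readout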
[6] = system: Escherichia coli; experiment: microbe, parasite or virus in culture
[7] = Luminescence Cell-Based Dose Response HTS to Identify Inhibitors of 5'UTR Stem-Loop Driven Prion Protein mRNA Translation in H4 Neuroglioblastoma Cells. [Related pubchem assays: 1827 (Project Summary), 1813 (Primary HTS)]; format: functional
[8] = inhibitors of SNCA 5'UTR-driven reporter translation, confirmation, H4 neuroglioma cells, luminescence (AID 1988); format: functional, cell-based
[9] = inhibitors of firefly luciferase expression or activity, dose response, H4 neuroglioma cells, luminescence (AID 1990); format: functional, cell-based
[10] = target: T2, Bcl-2-related protein A1 (Mus musculus, UniProt Q07440); format: functional;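 also: confirmatory dose–response counterscreen on Bfl-1, used to check hits from a UBC13 polyubiquitin inhibitor campaign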
T2 sequence (Q07440 whole entry): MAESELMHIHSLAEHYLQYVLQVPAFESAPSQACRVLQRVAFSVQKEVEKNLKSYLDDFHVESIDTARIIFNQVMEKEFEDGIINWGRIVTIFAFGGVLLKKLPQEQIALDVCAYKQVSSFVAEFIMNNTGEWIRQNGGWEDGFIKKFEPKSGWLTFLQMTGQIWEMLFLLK

[11] = target: T3, Ubiquitin-conjugating enzyme E2 N (Homo sapiens, UniProt P61088); format: functional
T3 sequence (P61088 whole entry): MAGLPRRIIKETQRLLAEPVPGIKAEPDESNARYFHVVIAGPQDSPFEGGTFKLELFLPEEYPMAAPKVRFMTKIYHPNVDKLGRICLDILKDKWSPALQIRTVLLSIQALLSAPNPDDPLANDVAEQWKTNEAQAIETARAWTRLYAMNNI

[12] = target: T3, Ubiquitin-conjugating enzyme E2 N; format: functional; remark: listed apart in the source
[13] = system: Escherichia coli; experiment: microbe, parasite or virus in culture; remark: listed apart in the source
[14] = target: G-protein coupled receptor 55 (Homo sapiens, UniProt Q9Y2T6); experiment: GPR55 antagonists blocking LPI-driven arrestin recruitment, primary screen, imaging, U2OS, beta-arrestin-GFP, LPI agonist (AID 2013); format: functional;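 also: antagonist potency measured as reduced agonist-driven arrestin aggregation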
G-protein coupled receptor 55, sequence (Q9Y2T6 whole entry): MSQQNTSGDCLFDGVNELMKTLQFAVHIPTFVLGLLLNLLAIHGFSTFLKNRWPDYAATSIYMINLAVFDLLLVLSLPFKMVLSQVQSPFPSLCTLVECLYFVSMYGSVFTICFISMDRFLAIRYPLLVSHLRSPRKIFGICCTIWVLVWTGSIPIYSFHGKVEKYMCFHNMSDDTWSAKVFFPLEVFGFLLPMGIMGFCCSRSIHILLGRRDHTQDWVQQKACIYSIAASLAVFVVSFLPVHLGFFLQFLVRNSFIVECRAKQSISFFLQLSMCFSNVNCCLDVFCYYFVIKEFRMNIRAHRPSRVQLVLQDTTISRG

[15] = system: H9c2; experiment: cells; format: functional, cell-based; details: Rattus norvegicus, H9c2, Myocardium;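 also: confirmatory concentration-response retest of ultra-high-throughput screening hits for modulation of myocardial damage; cell death induced by hydrogen peroxide oxidative stress; compound pretreatment for 60 min then peroxide exposure for 2 h; potency is for protecting the cells against peroxide damage rather than for killing them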
[16] = target: T4, Interleukin-8 (Homo sapiens, UniProt P10145); experiment: SAR analysis of GM-Tri-DAP induced IL-8 secretion in MCF-7/NOD1 cells - Set 2. [Related pubchem assays (depositor defined):AID1575, AID1578, AID2333]; format: functional, cell-based
T4 sequence (P10145 whole entry): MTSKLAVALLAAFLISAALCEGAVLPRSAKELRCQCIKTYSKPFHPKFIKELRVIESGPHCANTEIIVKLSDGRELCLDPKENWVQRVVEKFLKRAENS

[17] = target: T4, Interleukin-8; experiment: SAR analysis of Tumor necrosis factor alpha (TNF-alpha) induced IL-8 secretion in MCF-7/NOD1 cells - Set 2. [Related pubchem assays (depositor defined):AID1575, AID2250, AID2260]; format: functional, cell-based
[18] = target: Tumor necrosis factor (Homo sapiens, UniProt P01375); experiment: TNFa-triggered NF-kB activation inhibitors, SAR follow-up, cell-based, revised (AID 2337); format: functional
Tumor necrosis factor, sequence (P01375 whole entry, the tested form may be a part): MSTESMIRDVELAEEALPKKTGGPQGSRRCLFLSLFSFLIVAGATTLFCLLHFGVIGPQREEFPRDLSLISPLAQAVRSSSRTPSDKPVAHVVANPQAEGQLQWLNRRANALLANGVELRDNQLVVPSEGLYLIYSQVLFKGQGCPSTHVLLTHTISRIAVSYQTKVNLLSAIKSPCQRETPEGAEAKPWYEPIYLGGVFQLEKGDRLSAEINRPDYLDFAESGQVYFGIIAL

[19] = target: T5, Nucleotide-binding oligomerization domain-containing protein 1 (Homo sapiens, UniProt Q9Y239); experiment: NOD1 signaling inhibitors, SAR follow-up, revised (AID 2333); format: functional
T5 sequence (Q9Y239 whole entry): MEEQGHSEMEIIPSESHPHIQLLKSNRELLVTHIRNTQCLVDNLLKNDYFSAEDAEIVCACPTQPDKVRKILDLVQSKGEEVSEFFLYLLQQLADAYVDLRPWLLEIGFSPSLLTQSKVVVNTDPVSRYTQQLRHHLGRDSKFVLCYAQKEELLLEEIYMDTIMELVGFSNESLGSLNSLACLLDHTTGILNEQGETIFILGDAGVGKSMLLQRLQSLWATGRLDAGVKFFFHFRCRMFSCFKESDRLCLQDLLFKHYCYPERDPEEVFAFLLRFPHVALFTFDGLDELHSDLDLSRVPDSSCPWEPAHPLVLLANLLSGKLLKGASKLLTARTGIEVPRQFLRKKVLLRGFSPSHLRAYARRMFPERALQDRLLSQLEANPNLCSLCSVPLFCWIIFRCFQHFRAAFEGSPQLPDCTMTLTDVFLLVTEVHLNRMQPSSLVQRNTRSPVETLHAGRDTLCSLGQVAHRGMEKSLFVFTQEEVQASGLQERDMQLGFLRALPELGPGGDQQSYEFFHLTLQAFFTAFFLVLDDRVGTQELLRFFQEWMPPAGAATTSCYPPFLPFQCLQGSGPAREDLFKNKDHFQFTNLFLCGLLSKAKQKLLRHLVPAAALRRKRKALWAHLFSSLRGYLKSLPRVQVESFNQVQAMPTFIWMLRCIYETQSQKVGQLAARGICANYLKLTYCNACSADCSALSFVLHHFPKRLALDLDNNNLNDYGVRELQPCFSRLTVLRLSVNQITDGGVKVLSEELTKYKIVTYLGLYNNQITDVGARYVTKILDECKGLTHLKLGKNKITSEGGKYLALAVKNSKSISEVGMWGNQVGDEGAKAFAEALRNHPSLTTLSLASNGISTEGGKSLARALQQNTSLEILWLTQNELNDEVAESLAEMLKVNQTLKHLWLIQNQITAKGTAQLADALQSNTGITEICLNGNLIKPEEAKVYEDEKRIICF

[20] = system: HEK293; experiment: cells; details: Homo sapiens;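 also: cells exposed to compound for 14 hours overnight before viability readout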
[21] = target: T6, Hexokinase (Trypanosoma brucei, UniProt Q38C41); experiment: Confirmation assay for inhibitors of Trypanosoma brucei hexokinase 1-Analogue-first series. [Related pubchem assays (depositor defined):AID1430, AID1632, AID2516, AID2560, AID2579, AID2600, AID449725, AID492951]; format: functional
T6 sequence (Q38C41 whole entry): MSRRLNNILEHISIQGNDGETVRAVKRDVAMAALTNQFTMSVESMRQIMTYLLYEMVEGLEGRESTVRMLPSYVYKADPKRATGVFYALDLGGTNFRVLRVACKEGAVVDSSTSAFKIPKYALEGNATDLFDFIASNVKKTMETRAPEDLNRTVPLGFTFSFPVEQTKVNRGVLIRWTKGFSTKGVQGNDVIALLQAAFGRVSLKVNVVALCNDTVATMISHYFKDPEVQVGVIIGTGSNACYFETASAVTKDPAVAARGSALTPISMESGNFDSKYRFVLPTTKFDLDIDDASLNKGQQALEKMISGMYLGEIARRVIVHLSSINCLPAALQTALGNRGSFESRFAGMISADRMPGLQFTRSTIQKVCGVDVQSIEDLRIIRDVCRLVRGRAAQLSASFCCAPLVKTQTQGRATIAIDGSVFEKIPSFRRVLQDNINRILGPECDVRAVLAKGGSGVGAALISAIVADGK

[22] = system: Streptococcus; experiment: Group A Streptococcus viability loss, dose response, counter-screen for streptokinase expression inhibitor project, luminescence, BacTiterGlo (AID 1915); format: functional, organism-based;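 also: potency for reduction of bacterial viability or growth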
[23] = target: T7, Streptokinase A (Streptococcus pyogenes serotype M1, UniProt P10520); experiment: S. pyogenes streptokinase expression inhibitors, potency, dose response, plasminogen activation absorbance, OD405 (AID 1914); format: functional, Streptococcus pyogenes M1 GAS;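 also: secreted streptokinase activity via plasminogen activation per viability signal from cell pellet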
T7 sequence (P10520 whole entry): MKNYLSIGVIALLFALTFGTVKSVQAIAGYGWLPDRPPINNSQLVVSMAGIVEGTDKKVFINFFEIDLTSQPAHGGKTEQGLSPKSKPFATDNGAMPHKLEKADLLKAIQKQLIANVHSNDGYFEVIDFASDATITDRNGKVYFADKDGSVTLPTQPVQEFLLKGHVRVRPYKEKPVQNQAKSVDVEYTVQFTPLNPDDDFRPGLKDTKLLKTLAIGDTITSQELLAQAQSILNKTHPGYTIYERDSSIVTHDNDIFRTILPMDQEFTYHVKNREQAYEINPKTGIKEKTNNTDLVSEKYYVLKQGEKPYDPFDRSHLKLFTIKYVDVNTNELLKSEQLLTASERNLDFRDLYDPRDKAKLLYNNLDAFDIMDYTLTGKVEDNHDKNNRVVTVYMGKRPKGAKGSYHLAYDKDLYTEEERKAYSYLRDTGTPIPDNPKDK

[24] = system: Streptococcus sp. 'group A'; experiment: growth inhibition of control SK(-) GAS strain, dose response, counter-screen for streptokinase expression inhibitor project, luminescence, kanamycin, BacTiterGlo, confirmation (AID 1900); format: functional, organism-based
[25] = target: Alkaline phosphatase, placental type (Homo sapiens, UniProt P05187); experiment: PLAP enzyme inhibitors, confirmation, biochemical, luminescence (AID 1512); format: functional
Alkaline phosphatase, placental type, sequence (P05187 whole entry): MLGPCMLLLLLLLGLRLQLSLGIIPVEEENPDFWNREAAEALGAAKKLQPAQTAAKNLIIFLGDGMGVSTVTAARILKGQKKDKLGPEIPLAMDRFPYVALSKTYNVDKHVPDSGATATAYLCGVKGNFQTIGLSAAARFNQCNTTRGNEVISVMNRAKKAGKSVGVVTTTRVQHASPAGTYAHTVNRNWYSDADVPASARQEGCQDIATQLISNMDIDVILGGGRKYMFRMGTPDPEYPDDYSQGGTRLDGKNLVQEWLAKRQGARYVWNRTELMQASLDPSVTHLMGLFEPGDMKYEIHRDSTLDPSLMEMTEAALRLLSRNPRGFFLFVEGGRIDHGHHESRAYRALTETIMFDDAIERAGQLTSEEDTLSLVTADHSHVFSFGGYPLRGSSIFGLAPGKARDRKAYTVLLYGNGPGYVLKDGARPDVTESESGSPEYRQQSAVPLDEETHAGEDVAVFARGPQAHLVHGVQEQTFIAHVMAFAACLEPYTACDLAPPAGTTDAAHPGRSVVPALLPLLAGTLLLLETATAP

[26] = target: Glyceraldehyde-3-phosphate dehydrogenase (Homo sapiens, UniProt P04406)
Glyceraldehyde-3-phosphate dehydrogenase, sequence (P04406 whole entry): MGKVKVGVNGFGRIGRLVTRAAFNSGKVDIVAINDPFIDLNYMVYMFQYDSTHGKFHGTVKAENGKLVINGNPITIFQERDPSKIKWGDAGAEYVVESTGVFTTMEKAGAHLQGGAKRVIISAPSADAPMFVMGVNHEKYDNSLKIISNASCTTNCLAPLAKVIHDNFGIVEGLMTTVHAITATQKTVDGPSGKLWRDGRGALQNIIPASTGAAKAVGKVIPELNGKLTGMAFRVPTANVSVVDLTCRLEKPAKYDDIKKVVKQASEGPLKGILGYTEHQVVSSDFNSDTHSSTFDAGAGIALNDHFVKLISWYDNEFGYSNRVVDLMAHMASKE

T1 sequence (P49327 whole entry, the tested form may be a part): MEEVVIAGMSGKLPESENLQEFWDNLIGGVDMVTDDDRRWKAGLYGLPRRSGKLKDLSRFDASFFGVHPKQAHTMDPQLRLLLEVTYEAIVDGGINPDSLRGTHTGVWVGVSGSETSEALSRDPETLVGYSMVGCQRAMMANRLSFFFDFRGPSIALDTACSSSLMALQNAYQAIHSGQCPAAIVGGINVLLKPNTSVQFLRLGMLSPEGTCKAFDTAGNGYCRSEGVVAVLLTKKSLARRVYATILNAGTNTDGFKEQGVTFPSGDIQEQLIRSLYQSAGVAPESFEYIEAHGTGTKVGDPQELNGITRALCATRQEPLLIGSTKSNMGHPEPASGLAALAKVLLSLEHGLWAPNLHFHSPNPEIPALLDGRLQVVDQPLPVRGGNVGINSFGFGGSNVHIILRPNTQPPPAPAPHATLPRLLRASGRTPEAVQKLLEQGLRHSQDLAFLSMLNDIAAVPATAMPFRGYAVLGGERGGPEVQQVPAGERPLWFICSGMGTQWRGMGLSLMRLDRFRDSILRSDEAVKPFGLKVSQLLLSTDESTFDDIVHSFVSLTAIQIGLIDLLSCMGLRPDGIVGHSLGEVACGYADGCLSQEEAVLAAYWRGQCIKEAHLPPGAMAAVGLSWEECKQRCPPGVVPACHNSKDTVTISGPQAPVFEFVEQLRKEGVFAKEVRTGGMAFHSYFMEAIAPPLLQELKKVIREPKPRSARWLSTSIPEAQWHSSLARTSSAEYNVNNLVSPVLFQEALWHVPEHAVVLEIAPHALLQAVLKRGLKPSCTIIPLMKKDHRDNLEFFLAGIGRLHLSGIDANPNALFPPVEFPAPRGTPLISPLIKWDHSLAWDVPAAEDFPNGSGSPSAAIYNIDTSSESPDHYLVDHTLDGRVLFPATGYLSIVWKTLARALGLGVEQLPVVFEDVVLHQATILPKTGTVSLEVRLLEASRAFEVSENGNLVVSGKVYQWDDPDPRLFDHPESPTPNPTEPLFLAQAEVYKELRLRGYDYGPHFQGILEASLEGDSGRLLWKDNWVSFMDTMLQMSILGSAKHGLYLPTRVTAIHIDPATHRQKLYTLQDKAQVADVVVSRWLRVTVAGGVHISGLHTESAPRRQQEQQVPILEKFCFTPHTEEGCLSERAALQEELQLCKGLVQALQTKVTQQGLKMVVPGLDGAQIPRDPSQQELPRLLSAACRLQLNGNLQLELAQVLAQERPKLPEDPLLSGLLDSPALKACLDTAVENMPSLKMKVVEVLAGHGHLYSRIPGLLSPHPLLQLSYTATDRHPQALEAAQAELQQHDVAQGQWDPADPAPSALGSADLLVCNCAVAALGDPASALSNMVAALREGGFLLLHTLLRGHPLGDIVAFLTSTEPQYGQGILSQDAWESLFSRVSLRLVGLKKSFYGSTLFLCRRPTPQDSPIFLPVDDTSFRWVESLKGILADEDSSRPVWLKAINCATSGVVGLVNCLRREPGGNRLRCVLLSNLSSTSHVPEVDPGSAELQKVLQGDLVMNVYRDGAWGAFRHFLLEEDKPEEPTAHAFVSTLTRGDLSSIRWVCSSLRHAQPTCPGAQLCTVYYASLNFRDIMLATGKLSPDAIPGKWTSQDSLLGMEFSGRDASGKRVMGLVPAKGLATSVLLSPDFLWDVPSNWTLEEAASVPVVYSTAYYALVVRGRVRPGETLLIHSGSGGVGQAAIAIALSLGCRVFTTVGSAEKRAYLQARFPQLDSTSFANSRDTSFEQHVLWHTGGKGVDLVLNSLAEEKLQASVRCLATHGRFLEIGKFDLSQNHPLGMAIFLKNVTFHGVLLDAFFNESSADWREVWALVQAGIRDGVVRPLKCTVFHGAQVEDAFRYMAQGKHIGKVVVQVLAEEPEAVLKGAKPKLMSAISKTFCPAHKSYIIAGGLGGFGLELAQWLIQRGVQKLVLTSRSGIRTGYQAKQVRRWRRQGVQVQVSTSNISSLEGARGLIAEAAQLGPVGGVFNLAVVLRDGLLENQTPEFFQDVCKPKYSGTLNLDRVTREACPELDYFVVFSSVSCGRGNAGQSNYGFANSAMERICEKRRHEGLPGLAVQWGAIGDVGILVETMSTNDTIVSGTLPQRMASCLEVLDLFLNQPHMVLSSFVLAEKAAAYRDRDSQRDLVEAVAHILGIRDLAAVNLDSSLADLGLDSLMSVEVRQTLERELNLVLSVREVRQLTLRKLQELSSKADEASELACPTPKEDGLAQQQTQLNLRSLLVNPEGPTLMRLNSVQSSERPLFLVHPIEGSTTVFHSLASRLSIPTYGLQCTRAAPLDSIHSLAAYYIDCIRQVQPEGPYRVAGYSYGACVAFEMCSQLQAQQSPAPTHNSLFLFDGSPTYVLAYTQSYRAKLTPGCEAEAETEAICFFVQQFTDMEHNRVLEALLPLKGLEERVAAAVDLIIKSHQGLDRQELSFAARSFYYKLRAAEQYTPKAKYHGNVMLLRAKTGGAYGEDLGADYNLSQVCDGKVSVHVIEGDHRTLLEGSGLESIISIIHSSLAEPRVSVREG

N#C/C(=C\c1cccc([N+](=O)[O-])c1)C(=O)NCc1ccc(Cl)cc1
IC50 [1]: 4.48 µM (active)
IC50 [2]: 4.11 µM (active)
AC50 [3]: 1.93 µM (active)
IC50 [4]: > 66.6 µM (inactive)

COc1ccc(N(CC(=O)N2CCN(c3ccc(Cl)cc3)CC2)S(=O)(=O)c2c(C)n[nH]c2C)cc1
IC50 [5]: > 80 µM (inactive)

Cc1ccnc(SCCn2c(N3CC(C)CC(C)C3)nc3c2c(=O)n(C)c(=O)n3C)n1 (stereo not drawn)
AC50 [6]: 35.1 µM (active)
EC50 [7]: > 120 µM (not active)
EC50 [8]: > 120 µM (not active)
EC50 [9]: 39.1 µM (active)

O=[N+]([O-])c1ccc2[nH]c(O)c(N=NC(S)=NCC3CCCO3)c2c1 (stereo not drawn)
IC50 [10]: > 20 µM (inactive)
IC50 [11]: 0.664 µM (active)
IC50 [12]: 15.9 µM (active)

O=C1CC(c2cc(-c3ccccc3)no2)C1
AC50 [13]: 34.5 µM (active)

O=C(c1cccc(Oc2ccc([N+](=O)[O-])cc2Cl)c1)N1CCCCC1
IC50 [14]: 5.09 µM (active)

COc1ccc(S(=O)(=O)N2CCCCCC2)cc1NC(=O)c1c2c(nc3ccccc13)CCN(Cc1ccccc1)C2
AC50 [6]: 52 µM (active)
AC50 [13]: 26 µM (active)

Cc1nn(-c2nc3ccccc3[nH]2)c(N)c1-c1ccccc1
IC50 [4]: > 66.6 µM (inactive)

CC(C)(C)c1cc(NS(=O)(=O)c2ccc3c(c2)OCCO3)on1
AC50 [6]: 31 µM (active)

Cc1ccc(S(=O)(=O)n2cc(C=O)c3ccccc32)cc1
IC50 [10]: > 20 µM (inactive)
IC50 [11]: 11 µM (active)
IC50 [12]: 9.59 µM (active)

COc1cc(NC(=O)c2ccco2)c(OC)cc1NC(=O)c1cc(OC)c(OC)c(OC)c1
IC50 [5]: 41.3 µM (inactive)
IC50 [15]: 14.3 µM (active)

Cc1ccc(S(=O)(=O)n2c(=S)[nH]c3cc(C)ccc32)cc1
IC50 [16]: > 25 µM (inactive)
IC50 [17]: > 25 µM (inactive)
IC50 [18]: > 20 µM (inactive)
IC50 [19]: > 20 µM (inactive)
IC50 [20]: > 20 µM (inactive)

Fc1ccc(CSc2ncnc3scc(-c4ccccc4)c23)cc1
IC50 [14]: 2.16 µM (active)

Cc1csc(NC(=O)/C=C/c2ccc3c(c2)OCO3)n1
IC50 [5]: > 80 µM (inactive)

O=C(Cn1sc2ccccc2c1=O)Nc1cccc(Br)c1
IC50 [21]: > 25 µM (inactive)

O=C(Cn1sc2ccccc2c1=O)Nc1ccccc1Cl
IC50 [21]: 4.16 µM (active)

COc1ccc(NC(=O)Nc2ccccc2C(=O)O)cc1
IC50 [21]: > 25 µM (inactive)

NC(=O)c1ncn([C@@H]2O[C@H](CNCc3cccn3-c3ccncc3)[C@@H](O)[C@H]2O)n1
AC50 [13]: 24 µM (active)

CC1=CC(C)(C)n2c(O)c(/N=N/C(=N)S)c3cccc1c32
IC50 [10]: > 20 µM (inactive)
IC50 [11]: 4.79 µM (active)
IC50 [12]: 6.09 µM (active)

Cc1cccc(/C=N/NC(=O)c2ccccc2OCc2cccc(Br)c2)n1
EC50 [22]: 21.5 µM (active)
EC50 [23]: 16.1 µM (active)
EC50 [24]: 11 µM (active)
IC50 [4]: > 66.6 µM (inactive)

CCN1CCN(C(=O)c2cc(-c3ccc(Cl)cc3Cl)n[nH]2)CC1
IC50 [25]: > 100 µM (inactive)
IC50 [26]: > 100 µM (not active)
